Laboratory results from ChEMBL document CHEMBL4052722, “Virtual screening, synthesis and biological evaluation of DNA intercalating antiviral agents” (Bioorg Med Chem Lett, 2017).

Species: Bos taurus
Assay: Displacement of ethidium bromide from calf thymus DNA by fluorescence binding assay
Work on c1ccc2nc3c(nc2c1)c1ccccc1n3CCCCCN1CCCCC1 yielded a log Ka of 5.68. In the case of O=C(Cn1c2ccccc2c2nc3ccccc3nc21)NCCN1CCNCC1, the log Ka is reported as 5.72. With CN(C)CCCN1C(=O)c2cccc3cccc(c23)C1=O the log Ka was 7.07. For O=C1c2cccc3cccc(c23)C(=O)N1CCNCCO, the log Ka was 5.57. With CCN(CC)CCN1C(=O)/C(=N\NC(=O)CCN2CCOCC2)c2ccccc21 the log Ka was 6.08. O=C(CN1CCOCC1)N/N=C1\C(=O)Nc2ccccc21 was tested, and the log Ka was 5.28. For O=C(CN1C(=O)c2cccc3cccc(c23)C1=O)NCCN1CCOCC1, the log Ka was 5.68. Compound CCN(CC)CCN1C(=O)/C(=N\NC(=O)CN2CCCCCC2)c2ccccc21 has a log Ka of 6.32. Work on CN(C)CCCNC(=O)CCN1C(=O)c2cccc3cccc(c23)C1=O yielded a log Ka of 5.92. With O=C(CCCCCN1C(=O)c2cccc3cccc(c23)C1=O)NCCN1CCOCC1 the log Ka was 5.53. For CCN(CC)CCCNC(=O)c1cc2c(ccc3ccccc32)o1, the log Ka was 6.12. O=C(CCCn1c2ccccc2c2nc3ccccc3nc21)NCCN1CCNCC1 gave a log Ka of 4.97. Work on O=C(CN1CCCCC1)NN1C(=O)c2cccc3cccc(c23)C1=O yielded a log Ka of 6.2. CN(C)CCCNC(=O)CN1C(=O)c2cccc3cccc(c23)C1=O gave a log Ka of 5.63. For O=C(CN1CCCC1)N/N=C1\C(=O)Nc2ccccc21, the log Ka was 5.58. Work on CN1CCN(CCCCCn2c3ccccc3c3nc4ccccc4nc32)CC1 yielded a log Ka of 6.23. CN(C)CCCNC(=O)CCCN1C(=O)c2cccc3cccc(c23)C1=O showed a log Ka of 5.95. For O=C1c2cccc3cccc(c23)C(=O)N1NCCN1CCOCC1, the log Ka was 5.38. Compound CNCCCN1C(=O)c2cccc3cccc(c23)C1=O has a log Ka of 5.57. O=C1c2cccc3cccc(c23)C(=O)N1CCN1CCCCC1 showed a log Ka of 5.29. Work on CN1CCN(CCCCCCn2c3ccccc3c3nc4ccccc4nc32)CC1 yielded a log Ka of 6.45. Compound CCN(CC)CCN1C(=O)/C(=N/NC(=O)CCN2CCCCCC2)c2ccccc21 has a log Ka of 6.03. CCN(CC)CCNC(=O)c1cc2c(ccc3ccccc32)o1 gave a log Ka of 5.77. With O=C(CN1CCOCC1)NN1C(=O)c2cccc3cccc(c23)C1=O the log Ka was 5.34. CCN(CC)CCNC(=O)CN1C(=O)c2cccc3cccc(c23)C1=O gave a log Ka of 5.54. In the case of CCN(CC)CCN1C(=O)/C(=N\NC(=O)CN2CCCCC2)c2ccccc21, the log Ka is reported as 5.74. Work on CCN(CC)CCCN1C(=O)c2cccc3cccc(c23)C1=O yielded a log Ka of 6.57. O=C(CN1C(=O)c2cccc3cccc(c23)C1=O)NCCCN1CCOCC1 showed a log Ka of 5.46. CCN(CC)CCCNC(=O)CN1C(=O)c2cccc3cccc(c23)C1=O showed a log Ka of 5.31. CCN(CC)CC(=O)NN1C(=O)c2cccc3cccc(c23)C1=O gave a log Ka of 5.6. CCN(CC)CCCNC(=O)CCCn1c2ccccc2c2nc3ccccc3nc21 gave a log Ka of 4.77. O=C(CCCn1c2ccccc2c2nc3ccccc3nc21)NCCNCCO gave a log Ka of 5.05. For O=C(NCCN1CCOCC1)c1cc2c(ccc3ccccc32)o1, the log Ka was 4.58. In the case of O=C1c2cccc3cccc(c23)C(=O)N1CCCN1CCOCC1, the log Ka is reported as 6.93. For CCN(CC)CCN1C(=O)c2cccc3cccc(c23)C1=O, the log Ka was 6.98. CCN(CC)CCNC(=O)CCCCCN1C(=O)c2cccc3cccc(c23)C1=O was tested, and the log Ka was 5.49. Work on c1ccc2nc3c(nc2c1)c1ccccc1n3CCCCCCN1CCCCC1 yielded a log Ka of 5.95. O=C(CCCn1c2ccccc2c2nc3ccccc3nc21)NCCCNCCO showed a log Ka of 5.09. O=C(NCCCN1CCOCC1)c1cc2c(ccc3ccccc32)o1 was tested, and the log Ka was 5.64. In the case of CN(C)CCCNC(=O)c1cc2c(ccc3ccccc32)o1, the log Ka is reported as 5.48.

What follows are compounds tested on Vesicular stomatitis virus (assay: Antiviral activity against Vesicular stomatitis virus at 0.2 to 620 uM after 24 hrs post infection relative to control).
Format: functional
Compound c1ccc2nc3c(nc2c1)c1ccccc1n3CCCCCN1CCCCC1 has an Activity of 89%. c1ccc2c(c1)c1nc3c(nc1n2CCN1CCOCC1)CCCC3 showed an Activity of 66%. CN1CCN(CCn2c3ccccc3c3nc4c(nc32)CCCC4)CC1 showed an Activity of 100%. Work on CC1CCN(CCn2c3ccccc3c3nc4c(nc32)CCCC4)CC1 yielded an Activity of 95%. Work on CCCN(CCC)CCn1c2ccccc2c2nc3c(nc21)CCCC3 yielded an Activity of 90%. CN(C)CCn1c2ccccc2c2nc3c(nc21)CCCC3 showed an Activity of 88%. c1ccc2c(c1)c1nc3c(nc1n2CCN1CCCCC1)CCCC3 was tested, and the Activity was 65%.
